Results reported in US10952992B2, “Methods of treating intraocular pressure with activators of Tie-2” (Aerpio Pharmaceuticals, Inc., priority 2015, dated 2021).
Several values for one entry are separate records, joined by “and”; a condition that tells them apart may be missing. Equal values may be shown once. Where a name gives a salt, the structure may show the parent alone. Blank lines part the entries; values can stand above or below the compound they belong to.

Experiment: Example 2 plasma concentrations and pharmacokinetics after topical ocular, subcutaneous, intravitreal administration
Type: in vivo, male New Zealand White rabbits
Method: To measure the concentration of Compound 1 in plasma and ocular tissues following topical ocular, subcutaneous, and intravitreal administration, New Zealand White rabbits were administered Compound 1, and plasma and ocular samples were collected at pre-determined time points. Compound 1 formulations were prepared fresh on each day of dosing.
Ocular tissue samples from both eyes of each animal were collected and weights were recorded. Plasma and ocular tissue sample concentrations of Compound 1 were determined by LC-MS/MS.
New Zealand White rabbits weighing 2.5 to 3.5 kg were used on this study. Rabbits were housed one per cage. Animals were not fasted and only healthy animals with no ocular illness were used. Two rabbits per group were sacrificed at each of four ocular tissue sampling time points for a total of eight rabbits per group.
Animals were anesthetized for ocular (topical) and intravitreal dosing following the 12IA7 IACUC protocol. Each rabbit received a bolus dose of test formulation either via topical ocular administration 3 times daily on Days 1 and 2 (at 0, 6, and 12 hours), and once on Day 3 (at 0 hours) into both eyes; via intravitreal administration into both eyes once on Day 1 (at 0 hours); or via subcutaneous administration 2 times daily on Days 1 and 2 (at 0 and 8 hours) and once daily on Day 3 (at 0 hours). Doses were given within an approximately 1 hour window each day where applicable.
Each blood sample was collected on Day 3 post dose at pre-determined time points from the rabbits via an ear vessel and placed into chilled polypropylene tubes containing sodium heparin as an anticoagulant. Samples were spun by centrifuge at 4° C. and 3,000× g for 5 minutes. Samples were maintained chilled throughout processing. Each plasma sample was placed on dry ice and stored in a freezer at −60° C. to −80° C. pending bioanalysis.
An LC-MS/MS method was developed for the determination of Compound 1 in rabbit aqueous tissues (plasma, aqueous and vitreous humor) and solid ocular tissue samples. A pre-study standard curve was analyzed to determine the specificity, range, and lower limit of quantitation of the method. Plasma and tissue homogenate study samples were extracted and analyzed. All the samples were treated identically to the standards.
One eight-point standard curve was used in each analytical batch. To be accepted, each batch must have had at least five of eight standards with accuracy within ±20% of nominal, except at the lower limit of quantification (LLOQ), where ±25% was acceptable.
Pharmacokinetic parameters were calculated from the time course of the plasma concentration. The maximum plasma concentration (Cmax) and time to the maximum plasma drug concentration (Tmax) were the observed values for each concentration-time profiles. The area under the plasma drug concentration-time curve (AUClast, with last being from time 0 to the last quantifiable point) was calculated using the trapezoidal formula. The mean residence time MRTlast was calculated as a ratio of AUMClast (area under the first movement curve) to AUClast.

[1] = Group 3: subcutaneous 5 mg/kg/dose, 40 mM phosphate buffer pH 4.0 + 2.5% dextrose suspension
[2] = Group 3: subcutaneous 5 mg/kg/dose, 40 mM phosphate buffer pH 4.0 + 2.5% dextrose suspension, 0.25 hr
[3] = Group 3: subcutaneous 5 mg/kg/dose, 40 mM phosphate buffer pH 4.0 + 2.5% dextrose suspension, 0.50 hr
[4] = Group 3: subcutaneous 5 mg/kg/dose, 40 mM phosphate buffer pH 4.0 + 2.5% dextrose suspension, 1.0 hr
[5] = Group 3: subcutaneous 5 mg/kg/dose, 40 mM phosphate buffer pH 4.0 + 2.5% dextrose suspension, 2.0 hr
[6] = Group 3: subcutaneous 5 mg/kg/dose, 40 mM phosphate buffer pH 4.0 + 2.5% dextrose suspension, 4.0 hr
[7] = Group 3: subcutaneous suspension, normalized by nominal dose 5 mg/kg
[8] = Group 5: intravitreal 2.5 mg/eye (~1.54 mg/kg), 40 mM phosphate buffer pH 4.0 suspension
[9] = Group 5: intravitreal 2.5 mg/eye (~1.54 mg/kg), 40 mM phosphate buffer pH 4.0 suspension, 1.0 hr
[10] = Group 5: intravitreal 2.5 mg/eye (~1.54 mg/kg), 40 mM phosphate buffer pH 4.0 suspension, 3.0 hr
[11] = Group 5: intravitreal 2.5 mg/eye (~1.54 mg/kg), 40 mM phosphate buffer pH 4.0 suspension, 6.0 hr
[12] = Group 5: intravitreal 2.5 mg/eye (~1.54 mg/kg), 40 mM phosphate buffer pH 4.0 suspension, 24.0 hr
[13] = Group 5: intravitreal 2.5 mg/eye (~1.54 mg/kg), 40 mM phosphate buffer pH 4.0 suspension, 48.0 hr
[14] = Group 5: intravitreal 2.5 mg/eye (~1.54 mg/kg), 40 mM phosphate buffer pH 4.0 suspension, 72.0 hr
[15] = Group 5: intravitreal suspension, normalized by nominal dose 1.54 mg/kg
[16] = Group 1: topical ocular 1.2 mg/eye (~0.7 mg/kg/dose), 15% HPβCD + 1% dextrose solution
[17] = Group 1: topical ocular 1.2 mg/eye (~0.7 mg/kg/dose), 15% HPβCD + 1% dextrose, 0.50 hr
[18] = Group 1: topical ocular 1.2 mg/eye (~0.7 mg/kg/dose), 15% HPβCD + 1% dextrose, 1.0 hr
[19] = Group 1: topical ocular 1.2 mg/eye (~0.7 mg/kg/dose), 15% HPβCD + 1% dextrose, 2.0 hr
[20] = Group 1: topical ocular 1.2 mg/eye (~0.7 mg/kg/dose), 15% HPβCD + 1% dextrose, 4.0 hr
[21] = Group 2: subcutaneous 5 mg/kg/dose, 15% HPβCD + 1% dextrose solution
[22] = Group 2: subcutaneous 5 mg/kg/dose, 15% HPβCD + 1% dextrose solution, 0.25 hr
[23] = Group 2: subcutaneous 5 mg/kg/dose, 15% HPβCD + 1% dextrose solution, 0.50 hr
[24] = Group 2: subcutaneous 5 mg/kg/dose, 15% HPβCD + 1% dextrose solution, 1.0 hr
[25] = Group 2: subcutaneous 5 mg/kg/dose, 15% HPβCD + 1% dextrose solution, 2.0 hr
[26] = Group 2: subcutaneous 5 mg/kg/dose, 15% HPβCD + 1% dextrose solution, 4.0 hr
[27] = Group 2: subcutaneous solution, normalized by nominal dose 5 mg/kg
[28] = Group 4: intravitreal 2.5 mg/eye (~1.55 mg/kg), 10% HPβCD + 2% dextrose solution
[29] = Group 4: intravitreal 2.5 mg/eye (~1.55 mg/kg), 10% HPβCD + 2% dextrose solution, 1.0 hr
[30] = Group 4: intravitreal 2.5 mg/eye (~1.55 mg/kg), 10% HPβCD + 2% dextrose solution, 3.0 hr
[31] = Group 4: intravitreal 2.5 mg/eye (~1.55 mg/kg), 10% HPβCD + 2% dextrose solution, 6.0 hr
[32] = Group 4: intravitreal 2.5 mg/eye (~1.55 mg/kg), 10% HPβCD + 2% dextrose solution, 24.0 hr
[33] = Group 4: intravitreal 2.5 mg/eye (~1.55 mg/kg), 10% HPβCD + 2% dextrose solution, 48.0 hr
[34] = Group 4: intravitreal 2.5 mg/eye (~1.55 mg/kg), 10% HPβCD + 2% dextrose solution, 72.0 hr
[35] = Group 4: intravitreal solution, normalized by nominal dose 1.55 mg/kg

plasma AUClast (± SE) [1]: 864 ± 69 ng·h/mL and 864 ng·h/mL
plasma AUC∞ [1]: 1198 ng·h/mL
plasma Cmax (± SE) [1]: 395 ± 170 ng/mL and 395 ng/mL
plasma MRTlast [1]: 1.58 h
plasma t1/2 [1]: 2.12 h
plasma tmax [1]: 0.25 h
plasma Average conc. [2]: 395 ng/mL
plasma Conc., individual rabbit [2]: 225 ng/mL and 565 ng/mL
plasma Average conc. [3]: 337 ng/mL
plasma Conc., individual rabbit [3]: 272 ng/mL and 401 ng/mL
plasma Average conc. [4]: 295 ng/mL
plasma Conc., individual rabbit [4]: 300 ng/mL and 289 ng/mL
plasma Average conc. [5]: 206 ng/mL
plasma Conc., individual rabbit [5]: 194 ng/mL and 217 ng/mL
plasma Average conc. [6]: 110 ng/mL
plasma Conc., individual rabbit [6]: 111 ng/mL and 108 ng/mL
plasma AUC∞, dose normalized [7]: 240 kg·ng·h/mL/mg
plasma AUClast (± SE) [8]: 707 ± 53.1 ng·h/mL and 707 ng·h/mL
plasma AUC∞ [8]: 746 ng·h/mL
plasma Cmax (± SE) [8]: 25.3 ± 9.30 ng/mL and 25.3 ng/mL
plasma MRTlast [8]: 19.1 h
plasma t1/2 [8]: 16.5 h
plasma tmax [8]: 1.00 h
plasma Average conc. [9]: 25.3 ng/mL
plasma Conc., individual rabbit [9]: 34.6 ng/mL and 16.0 ng/mL
plasma Average conc. [10]: 24.4 ng/mL
plasma Conc., individual rabbit [10]: 28.4 ng/mL and 20.4 ng/mL
plasma Average conc. [11]: 23.1 ng/mL
plasma Conc., individual rabbit [11]: 22.0 ng/mL and 24.1 ng/mL
plasma Average conc. [12]: 12.3 ng/mL
plasma Conc., individual rabbit [12]: 9.96 ng/mL and 14.7 ng/mL
plasma Average conc. [13]: 3.63 ng/mL
plasma Conc., individual rabbit [13]: 2.69 ng/mL and 4.57 ng/mL
plasma Average conc. [14]: 1.65 ng/mL
plasma Conc., individual rabbit [14]: 1.83 ng/mL and 1.46 ng/mL
plasma tmax (Group 5: intravitreal 2.5 mg/eye (~1.54 mg/kg), 40 mM phosphate buffer pH 4.0 suspension, listed as Compound 1 (free acid)): 1 h
plasma AUC∞, dose normalized [15]: 484 kg·ng·h/mL/mg
Compound: COC(=O)N[C@@H](Cc1ccccc1)C(=O)N[C@@H](Cc1ccc(NS(=O)(=O)O)cc1)c1csc(-c2cccs2)n1 [Compound 1 free acid]
plasma AUClast, dose normalized [7]: 173 ± 13.8 kg·ng·h/mL/mg and 173 kg·ng·h/mL/mg
plasma AUClast, dose normalized [15]: 459 ± 34.5 kg·ng·h/mL/mg and 459 kg·ng·h/mL/mg

plasma Cmax (± SE) [16]: 7.48 ± 5.53 ng/mL and 7.48 ng/mL
plasma MRTlast [16]: 2.98 h
plasma tmax [16]: 4.00 h
plasma tmax (Group 1: topical ocular 1.2 mg/eye (~0.7 mg/kg/dose), 15% HPβCD + 1% dextrose solution, listed as Compound 1 (sodium salt)): 4 h
plasma Average conc. [17]: 3.03 ng/mL
plasma Conc., individual rabbit [17]: 3.84 ng/mL and 2.21 ng/mL
plasma Average conc. [18]: 1.46 ng/mL
plasma Conc., individual rabbit [18]: 1.28 ng/mL and 1.63 ng/mL
plasma Average conc. [19]: 1.14 ng/mL
plasma Conc., individual rabbit [19]: 2.04 ng/mL and 0.241 ng/mL
plasma Average conc. [20]: 7.48 ng/mL
plasma Conc., individual rabbit [20]: 13.0 ng/mL and 1.95 ng/mL
plasma AUC∞ [21]: 1560 ng·h/mL
plasma Cmax (± SE) [21]: 1525 ± 115 ng/mL and 1525 ng/mL
plasma MRTlast [21]: 0.87 h
plasma t1/2 [21]: 0.47 h
plasma tmax [21]: 0.25 h
plasma Average conc. [22]: 1525 ng/mL
plasma Conc., individual rabbit [22]: 1640 ng/mL and 1410 ng/mL
plasma Average conc. [23]: 1097 ng/mL
plasma Conc., individual rabbit [23]: 883 ng/mL and 1310 ng/mL
plasma Average conc. [24]: 646 ng/mL
plasma Conc., individual rabbit [24]: 664 ng/mL and 628 ng/mL
plasma Average conc. [25]: 180 ng/mL
plasma Conc., individual rabbit [25]: 55.5 ng/mL and 305 ng/mL
plasma Average conc. [26]: 7.76 ng/mL
plasma Conc., individual rabbit [26]: 7.98 ng/mL and 7.53 ng/mL
plasma AUC∞, dose normalized [27]: 312 kg·ng·h/mL/mg
plasma AUClast (± SE) [28]: 953 ± 91.1 ng·h/mL and 953 ng·h/mL
plasma AUC∞ [28]: 956 ng·h/mL
plasma Cmax (± SE) [28]: 39.8 ± 2.30 ng/mL and 39.8 ng/mL
plasma MRTlast [28]: 15.1 h
plasma t1/2 [28]: 8.08 h
plasma tmax [28]: 3.00 h
plasma Average conc. [29]: 32.3 ng/mL
plasma Conc., individual rabbit [29]: 33.2 ng/mL and 31.3 ng/mL
plasma Average conc. [30]: 39.8 ng/mL
plasma Conc., individual rabbit [30]: 37.5 ng/mL and 42.1 ng/mL
plasma Average conc. [31]: 36.8 ng/mL
plasma Conc., individual rabbit [31]: 44.3 ng/mL and 29.3 ng/mL
plasma Average conc. [32]: 16.9 ng/mL
plasma Conc., individual rabbit [32]: 19.0 ng/mL and 14.7 ng/mL
plasma Average conc. [33]: 2.58 ng/mL
plasma Conc., individual rabbit [33]: 2.70 ng/mL and 2.45 ng/mL
plasma Average conc. [34]: 0.27 ng/mL
plasma Conc., individual rabbit [34]: 0.215 ng/mL and 0.333 ng/mL
plasma tmax (Group 4: intravitreal 2.5 mg/eye (~1.55 mg/kg), 10% HPβCD + 2% dextrose solution, listed as Compound 1 (sodium salt)): 3 h
plasma AUC∞, dose normalized [35]: 617 kg·ng·h/mL/mg
mean plasma AUClast between the two dose formulations (intravitreal administration): comparable
mean plasma Cmax, sodium salt solution compared to free acid suspension (intravitreal administration): approximately 2 fold
mean plasma AUClast, sodium salt solution compared to free acid suspension (subcutaneous administration): approximately 2 fold
mean plasma Cmax, sodium salt solution compared to free acid suspension (subcutaneous administration): approximately 3 fold
mean plasma Tmax (subcutaneous administration, postdose): 0.25 h
Compound: COC(=O)N[C@@H](Cc1ccccc1)C(=O)N[C@@H](Cc1ccc(NS(=O)(=O)O)cc1)c1csc(-c2cccs2)n1 [Compound 1 sodium salt]
plasma AUClast (± SE) [16]: 11.8 ± 5.70 ng·h/mL and 11.8 ng·h/mL
plasma AUClast, dose normalized (Group 1: topical ocular, normalized by nominal dose 0.7 mg/kg): 16.8 ± 8.15 kg·ng·h/mL/mg and 16.8 kg·ng·h/mL/mg
plasma AUClast (± SE) [21]: 1555 ± 195 ng·h/mL and 1555 ng·h/mL
plasma AUClast, dose normalized [27]: 311 ± 38.9 kg·ng·h/mL/mg and 311 kg·ng·h/mL/mg
plasma AUClast, dose normalized [35]: 615 ± 58.8 kg·ng·h/mL/mg and 615 kg·ng·h/mL/mg
plasma concentrations vs free acid (FIG. 5) (intravitreal administration, up to twenty-four hours post-administration): slightly higher plasma concentrations as compared to the free acid
plasma concentrations vs free acid (FIG. 4) (subcutaneous administration, up to one hour post-administration): generally increased plasma concentrations as compared to the free acid
plasma concentration (FIG. 3) (topical ocular administration, 4 hour mark): increase in Compound 1 plasma concentration
